The results in this text go back to US9199962B2, “Substituted azaheterocycles for the treatment of cancer” (Merck Patent GmbH, priority 2011, dated 2015).

One assay deals with T1, GST-FAK (N-terminal GST fusion with truncated human FAK (376-1052 (end) amino acids)) (Homo sapiens, UniProt Q05397).
T1 construct: truncated human FAK (376-1052 (end) amino acids)
T1 sequence (Q05397 376-1052): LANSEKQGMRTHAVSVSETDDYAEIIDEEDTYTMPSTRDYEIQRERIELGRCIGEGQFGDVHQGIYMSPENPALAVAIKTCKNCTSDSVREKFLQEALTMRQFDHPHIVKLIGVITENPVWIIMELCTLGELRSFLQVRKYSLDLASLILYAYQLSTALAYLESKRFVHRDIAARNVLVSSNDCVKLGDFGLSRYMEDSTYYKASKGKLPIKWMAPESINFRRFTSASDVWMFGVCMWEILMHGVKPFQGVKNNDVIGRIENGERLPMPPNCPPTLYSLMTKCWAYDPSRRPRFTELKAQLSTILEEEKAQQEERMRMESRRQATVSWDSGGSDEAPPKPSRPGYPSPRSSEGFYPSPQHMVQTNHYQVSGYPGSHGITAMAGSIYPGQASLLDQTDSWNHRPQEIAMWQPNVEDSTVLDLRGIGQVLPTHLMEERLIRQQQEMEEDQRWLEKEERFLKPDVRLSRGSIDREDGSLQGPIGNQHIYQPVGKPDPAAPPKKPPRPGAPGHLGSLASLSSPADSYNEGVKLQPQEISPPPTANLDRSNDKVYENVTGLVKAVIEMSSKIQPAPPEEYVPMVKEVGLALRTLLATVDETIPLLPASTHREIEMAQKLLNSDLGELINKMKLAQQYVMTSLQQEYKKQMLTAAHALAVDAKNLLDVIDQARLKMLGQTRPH
Nature of the assay: Biochemical enzyme assay for FAK activity (Caliper LC3000 mobility shift). The settings on record: Table 1; 100 uM ATP; read-out: FAK IC50. The essentials: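 Inhibitor dose series in DMSO were incubated 90 min at 25 °C with truncated GST-tagged human FAK (0.067 ng/µl) and FITC-labelled peptide substrate (1 µM), with ATP at 100 µM and FERM peptide at 1 mM (pH 7.5 HEPES). After EDTA quench, phosphorylated and unphosphorylated peptides were resolved electrophoretically. Percent conversion was fitted for IC50.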
For the compound `CC1(C)Cc2cccc(CNc3ccnc(-c4cncc(F)c4)n3)c2O1` [Compound 8, (2,2-Dimethyl-2,3-dihydro-benzofuran-7-ylmethyl)-[2-(5-fluoro-pyridin-3-yl)-pyrimidin-4-yl]-amine], the IC50 is over 10 µM.

Consider `CC1(C)Cc2cccc(CNc3ccnc(-c4cncc(Cl)c4)n3)c2O1` [Compound 18, [2-(5-Chloro-pyridin-3-yl)-pyrimidin-4-yl]-(2,2-dimethyl-2,3-dihydro-benzofuran-7-ylmethyl)-amine], for which the IC50 was over 10 µM.

For the compound `Clc1cncc(-c2nccc(NCc3ccc(N4CCOCC4)cc3)n2)c1` [Compound 20, [2-(5-Chloro-pyridin-3-yl)-pyrimidin-4-yl]-(4-morpholin-4-yl-benzyl)-amine], the half-maximal inhibitory concentration (IC50) is over 10 µM.

Regarding `O=C(c1cncc(-c2nccc(NCc3ccc4c(c3)OCCO4)n2)c1)N1CCOCC1` [Compound 15, (5-{4-[(2,3-Dihydro-benzo[1,4]dioxin-6-ylmethyl)-amino]-pyrimidin-2-yl}-pyridin-3-yl)-morpholin-4-yl-methanone], the 50% inhibitory concentration (IC50) is over 10 µM.

Regarding `COc1ccc(CNc2ccnc(-c3cncc(F)c3)n2)c(F)c1F` [Compound 21, (2,3-Difluoro-4-methoxy-benzyl)-[2-(5-fluoro-pyridin-3-yl)-pyrimidin-4-yl]-amine], the IC50 was 1 to 10 µM.

As to `COc1cncc(-c2nccc(NCc3cccc(-n4cccn4)c3)n2)c1` [Compound 5, [2-(5-Methoxy-pyridin-3-yl)-pyrimidin-4-yl]-(3-pyrazol-1-yl-benzyl)-amine], the IC50 fell in the range of 1 to 10 µM.

Consider `Fc1cncc(-c2nccc(NCc3ccc(Cl)cc3F)n2)c1` [Compound 33, (4-Chloro-2-fluoro-benzyl)-[2-(5-fluoro-pyridin-3-yl)-pyrimidin-4-yl]-amine], for which the IC50 is under 0.1 µM.

In the case of `Fc1cncc(-c2nccc(NCc3cccc(-n4cccn4)c3)n2)c1` [Compound 11, [2-(5-Fluoro-pyridin-3-yl)-pyrimidin-4-yl]-(3-pyrazol-1-yl-benzyl)-amine], the IC50 was over 10 µM.

Still in this assay, the particulars now being: Table 2; 100 uM ATP; read-out: FAK IC50.
Consider `CC(=O)NCCNC(=O)c1cc(NCc2ccc(F)cc2F)nc(-c2cncc(C(F)(F)F)c2)n1` [Compound 69, 6-(2,4-Difluoro-benzylamino)-2-(5-trifluoromethyl-pyridin-3-yl)-pyrimidine-4-carboxylic acid (2-acetylamino-ethyl)-amide], for which the IC50 was under 0.1 µM.

As for `O=C(NCCc1cccnc1)c1cc(NCc2ccc(F)cc2F)nc(-c2cncc(C(F)(F)F)c2)n1` [Compound 70, 6-(2,4-Difluoro-benzylamino)-2-(5-trifluoromethyl-pyridin-3-yl)-pyrimidine-4-carboxylic acid (2-pyridin-3-yl-ethyl)-amide], the IC50 is under 0.1 µM.

On to `Fc1ccc(CNc2cc(NC3CCNCC3)nc(-c3cncc(C(F)(F)F)c3)n2)c(F)c1` [Compound 66, N-(2,4-Difluoro-benzyl)-N′-piperidin-4-yl-2-(5-trifluoromethyl-pyridin-3-yl)-pyrimidine-4,6-diamine], for which the IC50 fell in the range of 0.1 to 1 µM.

Staying with this assay, now noted: Table 3; 100 uM ATP; read-out: FAK IC50.
Turning to `Nc1ncccc1-c1nccc(NCc2ccccc2OC(F)(F)F)n1` [Compound 84, 2-(2-Aminopyridin-3-yl)-N-[2-(trifluoromethoxy)benzyl]pyrimidin-4-amine], the IC50 was 1 to 10 µM.

On to `Nc1ncccc1-c1nccc(NCc2cccnc2C(F)(F)F)n1` [Compound 137, 2-(2-Aminopyridin-3-yl)-N-{[2-(trifluoromethyl)pyridin-3-yl]methyl}pyrimidin-4-amine], for which the IC50 was 1 to 10 µM.

Consider `CS(=O)(=O)c1cccc(CNc2ccnc(-c3cccnc3N)n2)c1` [Compound 90, 2-(2-Aminopyridin-3-yl)-N-[3-(methylsulfonyl)benzyl]pyrimidin-4-amine], for which the IC50 was 1 to 10 µM.

Turning to `Nc1ncccc1-c1nccc(NCc2cccc(F)c2F)n1` [Compound 85, 2-(2-Aminopyridin-3-yl)-N-(2,3-difluorobenzyl)pyrimidin-4-amine], the IC50 was in the range of 1 to 10 µM.

As to `Nc1ncccc1-c1nccc(NCc2ccccc2)n1` [Compound 81, 2-(2-Aminopyridin-3-yl)-N-benzylpyrimidin-4-amine], the IC50 was in the range of 1 to 10 µM.

As to `Nc1ncccc1-c1cccc(NCc2ccccc2F)c1` [Compound 105, 3-{3-[(2-Fluorobenzyl)amino]phenyl}pyridin-2-amine], the IC50 was over 10 µM.

`CNC[C@@H](Nc1ccnc(-c2cccnc2N)n1)c1cccc(F)c1` [Compound 145, (S)-N1-[2-(2-Amino-pyridin-3-yl)-pyrimidin-4-yl]-1-(3-fluoro-phenyl)-N2-methyl-ethane-1,2-diamine]: the IC50 is over 10 µM.

In the case of `COc1ccccc1CNc1ccnc(-c2cccnc2N)n1` [Compound 83, 2-(2-Aminopyridin-3-yl)-N-(2-methoxybenzyl)pyrimidin-4-amine], the IC50 lay within 1 to 10 µM.

For the compound `Nc1ncccc1-c1cc(NCc2ccccc2C(F)(F)F)ccn1` [Compound 113, N4-[2-(trifluoromethyl)benzyl]-2,3′-bipyridine-2′,4-diamine], the IC50 is 1 to 10 µM.

On to `Nc1ncccc1-c1nccc(N2Cc3ccccc3C2=O)n1` [Compound 120, 2-[2-(2-Aminopyridin-3-yl)pyrimidin-4-yl]isoindolin-1-one], for which the IC50 was over 10 µM.

Regarding `Nc1ncccc1-c1nccc(NCc2ccc(Cl)cc2C(F)(F)F)n1` [Compound 109, 2-(2-Aminopyridin-3-yl)-N-[4-chloro-2-(trifluoromethyl)benzyl]pyrimidin-4-amine], the IC50 lay in the range of 0.1 to 1 µM.

The same assay, now with this note: Table 4; 100 uM ATP; read-out: IC50 FAK.
For the compound `N#Cc1cncc(-c2nccc(NCc3ccc(F)cc3F)n2)c1` [Compound 180, 5-[4-[(2,4-difluorophenyl)methylamino]pyrimidin-2-yl]pyridine-3-carbonitrile], the IC50 was 0.1 to 1 µM.

The assay is the same for the next values; noted with them: Table 5; 100 uM ATP; read-out: FAK IC50.
On to `CCOC(=O)c1ccccc1Nc1ccnc(-c2cncc(C(F)(F)F)c2)n1` [Compound 250, 2-[2-(5-Trifluoromethyl-pyridin-3-yl)-pyrimidin-4-ylamino]-benzoic acid ethyl ester], for which the IC50 was over 10 µM.

In the case of `Fc1ccc(CNc2nc(-c3cncc(C(F)(F)F)c3)nc3c2ncn3C2CCCCO2)c(F)c1` (centres unmarked) [Compound 243, (2,4-Difluoro-benzyl)-[9-(tetrahydro-pyran-2-yl)-2-(5-trifluoromethyl-pyridin-3-yl)-9H-purin-6-yl]-amine], the IC50 lay in the range of 0.1 to 1 µM.

Take `CC(=O)NCCNC(=O)c1cc(NCc2ncccc2F)nc(-c2cncc(C(F)(F)F)c2)n1` [Compound 189, 6-[(3-Fluoro-pyridin-2-ylmethyl)-amino]-2-(5-trifluoromethyl-pyridin-3-yl)-pyrimidine-4-carboxylic acid (2-acetylamino-ethyl)-amide]: the IC50 was 0.1 to 1 µM.

Take `Fc1ccc(CNc2ccnc(-c3cccnc3)n2)c(F)c1` [Compound 210, (2,4-Difluoro-benzyl)-(2-pyridin-3-yl-pyrimidin-4-yl)-amine]: the IC50 was in the range of 0.1 to 1 µM.

Turning to `CN(c1ncccc1CNc1nccc(-c2cncc(C(F)(F)F)c2)n1)S(C)(=O)=O` [Compound 251, N-Methyl-N-(3-{[4-(5-trifluoromethyl-pyridin-3-yl)-pyrimidin-2-ylamino]-methyl}-pyridin-2-yl)-methanesulfonamide], the IC50 is 1 to 10 µM.

For `COc1cncc(-c2nccc(NCc3ccc(F)cc3F)n2)c1` [Compound 223, (2,4-Difluoro-benzyl)-[2-(5-methoxy-pyridin-3-yl)-pyrimidin-4-yl]-amine], the IC50 is under 0.1 µM.

Consider `Cn1cc(-c2cc(NCc3ccc(F)cc3F)nc(-c3cncc(C(F)(F)F)c3)n2)cn1` [Compound 257, (2,4-Difluoro-benzyl)-[6-(1-methyl-1H-pyrazol-4-yl)-2-(5-trifluoromethyl-pyridin-3-yl)-pyrimidin-4-yl]-amine], for which the IC50 fell in the range of 0.1 to 1 µM.

Consider `Fc1ccc(CNc2ccnc(-c3ccc(F)nc3)n2)c(F)c1` [Compound 217, (2,4-Difluoro-benzyl)-[2-(6-fluoro-pyridin-3-yl)-pyrimidin-4-yl]-amine], for which the IC50 was over 10 µM.

As for `COc1cncc(-c2nccc(NCc3cc[nH]n3)n2)c1` [Compound 218, [2-(5-Methoxy-pyridin-3-yl)-pyrimidin-4-yl]-(1H-pyrazol-3-ylmethyl)-amine], the IC50 fell in the range of 1 to 10 µM.

Turning to `CS(=O)(=O)Nc1cccc(-c2nccc(NCc3ccc(F)cc3F)n2)c1` [Compound 241, N-{3-[4-(2,4-Difluoro-benzylamino)-pyrimidin-2-yl]-phenyl}-methanesulfonamide], the IC50 is over 10 µM.

With `COc1cncc(-c2nccc(NCc3ccccc3)n2)c1` [Compound 227, Benzyl-[2-(5-methoxy-pyridin-3-yl)-pyrimidin-4-yl]-amine], the IC50 is 0.1 to 1 µM.

`CS(=O)(=O)c1ccccc1-c1ccccc1CNc1ccnc(-c2cncc(C(F)(F)F)c2)n1` [Compound 196, (2′-Methanesulfonyl-biphenyl-2-ylmethyl)-[2-(5-trifluoromethyl-pyridin-3-yl)-pyrimidin-4-yl]-amine]: the half-maximal inhibitory concentration (IC50) was in the range of 1 to 10 µM.

For the compound `COc1ncccc1NC(=O)c1cc(NCc2ccc(F)cc2F)nc(-c2cncc(C(F)(F)F)c2)n1` [Compound 233, 6-(2,4-Difluoro-benzylamino)-2-(5-trifluoromethyl-pyridin-3-yl)-pyrimidine-4-carboxylic acid (2-methoxy-pyridin-3-yl)-amide], the IC50 was 0.1 to 1 µM.

Regarding `O=C(O)c1cc(NCc2ccc(F)cc2F)nc(-c2cncc(C(F)(F)F)c2)n1` [Compound 272, 6-(2,4-Difluoro-benzylamino)-2-(5-trifluoromethyl-pyridin-3-yl)-pyrimidine-4-carboxylic acid], the 50% inhibitory concentration (IC50) fell in the range of 0.1 to 1 µM.

Take `O=C1CCCN1CCNc1ccnc(-c2cncc(C(F)(F)F)c2)n1` [Compound 200, 1-{2-[2-(5-Trifluoromethyl-pyridin-3-yl)-pyrimidin-4-ylamino]-ethyl}-pyrrolidin-2-one]: the half-maximal inhibitory concentration (IC50) is over 10 µM.

Broadly, the IC50 is the point on the concentration scale where inhibition reaches its midpoint.
